Measurements reported in patent US9132140B2, “Boronic acid derivatives and therapeutic uses thereof” (Rempex Pharmaceuticals, Inc., priority 2013, dated 2015).

Columns and labels:
KPM1108 (NDM, KPC) = format: cell-based, Klebsiella pneumoniae
Description: (§1) Several strains simultaneously expressing both class A and class B carbapenemases, which were constructed using conjugation, were also included in the panel.

KPM1109 (NDM, KPC) = format: cell-based, Klebsiella pneumoniae
Description: as §1

KPM1110 (NDM, KPC) = format: cell-based, Klebsiella pneumoniae
Description: as §1

KPM1111 (NDM, KPC) = format: cell-based, Klebsiella pneumoniae
Description: as §1

KPM1122 (NDM, VIM) = format: cell-based, Klebsiella pneumoniae
Description: as §1

KPM1123 (KPC-2 TEM SHV) = format: cell-based, Klebsiella pneumoniae
Description: as §1

KPM1344 (VIM-1) = format: cell-based, Klebsiella pneumoniae
Description: as §1

KPM1345 (VIM-1 SHV) = format: cell-based, Klebsiella pneumoniae
Description: as §1

[1] = test system: KPM1346 (NDM-1 TEM SHV CTX-M-15 CMY); format: cell-based, Klebsiella pneumoniae
Description: as §1

[2] = test system: KPM1347 (NDM-1 SHV CTX-M-15); format: cell-based, Klebsiella pneumoniae
Description: as §1

ECL1026 (KPC) = format: cell-based, Enterobacter cloacae
Description: as §1

ECL1036 (KPC) = format: cell-based, Enterobacter cloacae
Description: as §1

[3] = test system: ECL1057 (NDM-1, TEM-1, CTX-M-15); format: cell-based, Enterobacter cloacae
Description: as §1

ECLM1016 (NDM, KPC) = format: cell-based, Enterobacter cloacae
Description: as §1

ECLM1017 (VIM, KPC) = format: cell-based, Enterobacter cloacae
Description: as §1

ECLM1019 (VIM, KPC) = format: cell-based, Enterobacter cloacae
Description: as §1

[4] = test system: strains of Enterobacteriaceae producing various carbapenemases; test: Meropenem/imipenem potentiation MIC, whole panel; format: cell-based; conditions: strains expressing various carbapenemases, incl. class A and class B simultaneously; compound fixed 4 vg/ml
Description: Several strains simultaneously expressing both class A and class B carbapenemases, which were constructed using conjugation, were also included in the panel. […]

Nn1cnnc1S[C@H]1Cc2cccc(C(=O)O)c2OB1O [Compound 14, (R)-3-(4-amino-4H-1,2,4-triazol-3-ylthio)-2-hydroxy-3,4-dihydro-2H-benzo[e][1,2]oxaborinine-8-carboxylic acid]
Meropenem + 14 MIC (KPM1108 (NDM, KPC)): Z (key: X: MIC of less than 1 μg/mL; Y: MIC of 1 μg/mL to 10 μg/mL; Z: MIC of greater than 10 μg/mL)
Imipenem + 14 MIC (KPM1109 (NDM, KPC)): X (key: X: MIC of less than 1 μg/mL; Y: MIC of 1 μg/mL to 10 μg/mL; Z: MIC of greater than 10 μg/mL)
Meropenem + 14 MIC (KPM1109 (NDM, KPC)): Y (key: X: MIC of less than 1 μg/mL; Y: MIC of 1 μg/mL to 10 μg/mL; Z: MIC of greater than 10 μg/mL)
Imipenem + 14 MIC (KPM1110 (NDM, KPC)): X (key: X: MIC of less than 1 μg/mL; Y: MIC of 1 μg/mL to 10 μg/mL; Z: MIC of greater than 10 μg/mL)
Meropenem + 14 MIC (KPM1110 (NDM, KPC)): X (key: X: MIC of less than 1 μg/mL; Y: MIC of 1 μg/mL to 10 μg/mL; Z: MIC of greater than 10 μg/mL)
Imipenem + 14 MIC (KPM1111 (NDM, KPC)): X (key: X: MIC of less than 1 μg/mL; Y: MIC of 1 μg/mL to 10 μg/mL; Z: MIC of greater than 10 μg/mL)
Meropenem + 14 MIC (KPM1111 (NDM, KPC)): X (key: X: MIC of less than 1 μg/mL; Y: MIC of 1 μg/mL to 10 μg/mL; Z: MIC of greater than 10 μg/mL)
Imipenem + 14 MIC (KPM1122 (NDM, VIM)): Y (key: X: MIC of less than 1 μg/mL; Y: MIC of 1 μg/mL to 10 μg/mL; Z: MIC of greater than 10 μg/mL)
Meropenem + 14 MIC (KPM1122 (NDM, VIM)): Y (key: X: MIC of less than 1 μg/mL; Y: MIC of 1 μg/mL to 10 μg/mL; Z: MIC of greater than 10 μg/mL)
Imipenem + 14 MIC (KPM1123 (KPC-2 TEM SHV)): X (key: X: MIC of less than 1 μg/mL; Y: MIC of 1 μg/mL to 10 μg/mL; Z: MIC of greater than 10 μg/mL)
Meropenem + 14 MIC (KPM1123 (KPC-2 TEM SHV)): X (key: X: MIC of less than 1 μg/mL; Y: MIC of 1 μg/mL to 10 μg/mL; Z: MIC of greater than 10 μg/mL)
Imipenem + 14 MIC (KPM1344 (VIM-1)): X (key: X: MIC of less than 1 μg/mL; Y: MIC of 1 μg/mL to 10 μg/mL; Z: MIC of greater than 10 μg/mL)
Meropenem + 14 MIC (KPM1344 (VIM-1)): Y (key: X: MIC of less than 1 μg/mL; Y: MIC of 1 μg/mL to 10 μg/mL; Z: MIC of greater than 10 μg/mL)
Imipenem + 14 MIC (KPM1345 (VIM-1 SHV)): X (key: X: MIC of less than 1 μg/mL; Y: MIC of 1 μg/mL to 10 μg/mL; Z: MIC of greater than 10 μg/mL)
Meropenem + 14 MIC (KPM1345 (VIM-1 SHV)): X (key: X: MIC of less than 1 μg/mL; Y: MIC of 1 μg/mL to 10 μg/mL; Z: MIC of greater than 10 μg/mL)
Imipenem + 14 MIC [1]: Y (key: X: MIC of less than 1 μg/mL; Y: MIC of 1 μg/mL to 10 μg/mL; Z: MIC of greater than 10 μg/mL)
Meropenem + 14 MIC [1]: Z (key: X: MIC of less than 1 μg/mL; Y: MIC of 1 μg/mL to 10 μg/mL; Z: MIC of greater than 10 μg/mL)
Imipenem + 14 MIC [2]: X (key: X: MIC of less than 1 μg/mL; Y: MIC of 1 μg/mL to 10 μg/mL; Z: MIC of greater than 10 μg/mL)
Meropenem + 14 MIC [2]: X (key: X: MIC of less than 1 μg/mL; Y: MIC of 1 μg/mL to 10 μg/mL; Z: MIC of greater than 10 μg/mL)
Imipenem + 14 MIC (ECL1026 (KPC)): X (key: X: MIC of less than 1 μg/mL; Y: MIC of 1 μg/mL to 10 μg/mL; Z: MIC of greater than 10 μg/mL)
Meropenem + 14 MIC (ECL1026 (KPC)): X (key: X: MIC of less than 1 μg/mL; Y: MIC of 1 μg/mL to 10 μg/mL; Z: MIC of greater than 10 μg/mL)
Imipenem + 14 MIC (ECL1036 (KPC)): X (key: X: MIC of less than 1 μg/mL; Y: MIC of 1 μg/mL to 10 μg/mL; Z: MIC of greater than 10 μg/mL)
Meropenem + 14 MIC (ECL1036 (KPC)): X (key: X: MIC of less than 1 μg/mL; Y: MIC of 1 μg/mL to 10 μg/mL; Z: MIC of greater than 10 μg/mL)
Imipenem + 14 MIC [3]: Y (key: X: MIC of less than 1 μg/mL; Y: MIC of 1 μg/mL to 10 μg/mL; Z: MIC of greater than 10 μg/mL)
Meropenem + 14 MIC [3]: Z (key: X: MIC of less than 1 μg/mL; Y: MIC of 1 μg/mL to 10 μg/mL; Z: MIC of greater than 10 μg/mL)
Imipenem + 14 MIC (ECLM1016 (NDM, KPC)): X (key: X: MIC of less than 1 μg/mL; Y: MIC of 1 μg/mL to 10 μg/mL; Z: MIC of greater than 10 μg/mL)
Meropenem + 14 MIC (ECLM1016 (NDM, KPC)): X (key: X: MIC of less than 1 μg/mL; Y: MIC of 1 μg/mL to 10 μg/mL; Z: MIC of greater than 10 μg/mL)
Imipenem + 14 MIC (ECLM1017 (VIM, KPC)): X (key: X: MIC of less than 1 μg/mL; Y: MIC of 1 μg/mL to 10 μg/mL; Z: MIC of greater than 10 μg/mL)
Meropenem + 14 MIC (ECLM1017 (VIM, KPC)): X (key: X: MIC of less than 1 μg/mL; Y: MIC of 1 μg/mL to 10 μg/mL; Z: MIC of greater than 10 μg/mL)
Imipenem + 14 MIC (ECLM1019 (VIM, KPC)): X (key: X: MIC of less than 1 μg/mL; Y: MIC of 1 μg/mL to 10 μg/mL; Z: MIC of greater than 10 μg/mL)
Meropenem + 14 MIC (ECLM1019 (VIM, KPC)): X (key: X: MIC of less than 1 μg/mL; Y: MIC of 1 μg/mL to 10 μg/mL; Z: MIC of greater than 10 μg/mL)
carbapenem MIC in the presence of compound [4]: significantly reduced
